# Reference: US5977133A, “Pyridone antibiotic with improved safety profile” (priority 1998, dated 1999)
# Key:
# Type in all cases: cell-based
# E. faecium (CiproS) = experiment: In vitro MIC, agar dilution; conditions: Enterococcus faecium, E. faecium (CiproS), 16 isolates
# B. fragilis = experiment: In vitro MIC, agar dilution; conditions: Bacteroides fragilis
# S. pneumoniae (PenS) = experiment: In vitro MIC, agar dilution; conditions: Streptococcus pneumoniae
# Enterococcus spp. (VanR) = experiment: In vitro MIC, agar dilution; conditions: Enterococcus spp. (VanR), 21 isolates
# S. pneumoniae (PenR) = experiment: In vitro MIC, agar dilution; conditions: Streptococcus pneumoniae
# Providencia spp. = experiment: In vitro MIC, agar dilution
# Shigella spp. = experiment: microbe, parasite or virus in culture; conditions: read-out: MIC Range
# C. difficile = experiment: In vitro MIC, agar dilution; conditions: Clostridioides difficile
# C. freundii = experiment: In vitro MIC, agar dilution; conditions: Citrobacter freundii
# N. gonorrhoeae = experiment: In vitro MIC, agar dilution; conditions: Neisseria gonorrhoeae
# E. faecium (CiproR) = experiment: In vitro MIC, agar dilution; conditions: Enterococcus faecium; E. faecium (CiproR), 2 isolates; read-out: MIC Range
# P. aeruginosa (CiproS) = experiment: In vitro MIC, agar dilution; conditions: Pseudomonas aeruginosa
# E. faecalis (VanS) = experiment: In vitro MIC, agar dilution; conditions: Enterococcus faecalis
# P. aeruginosa (CiproR) = experiment: In vitro MIC, agar dilution; conditions: Pseudomonas aeruginosa
# H. influenzae = experiment: In vitro MIC, agar dilution; conditions: Haemophilus influenzae, H. influenzae, 18 isolates
# H. pylori = experiment: In vitro MIC, agar dilution; conditions: Helicobacter pylori
# Enterobacter spp. = experiment: In vitro MIC, agar dilution; conditions: Enterobacter
# S. aureus (CiproS) = experiment: In vitro MIC, agar dilution; conditions: Staphylococcus aureus
# P. mirabilis = experiment: In vitro MIC, agar dilution; conditions: Proteus mirabilis
# S. pneumoniae (CiproR) = experiment: In vitro MIC, agar dilution; conditions: Streptococcus pneumoniae; S. pneumoniae (CiproR), 3 isolates; read-out: MIC Range
# M. avium = experiment: In vitro MIC, agar dilution; conditions: Mycobacterium avium
# Salmonella spp. = experiment: In vitro MIC, agar dilution; conditions: 23 isolates
# Method in brief: (§1)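 Agar dilution plates were inoculated with ~10^4 CFU per spot by replicator, using 1:100 dilutions (1:10 for slow growers) and incubated at 35–37 °C for 20–24 h. MIC is the lowest concentration giving no growth, where slight haze or sparse colonies count as none, judged against a compound-free BHI agar control.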
# E. coli = experiment: In vitro MIC, agar dilution; conditions: Escherichia coli, 25 isolates
# Method in brief: as §1
# M. pneumoniae = experiment: In vitro MIC, agar dilution; conditions: Mycoplasmoides pneumoniae; M. pneumoniae, 7 isolates; read-out: MIC Range
# S. pyogenes = experiment: In vitro MIC, agar dilution; conditions: Streptococcus pyogenes
# S. epidermidis (CiproS) = experiment: In vitro MIC, agar dilution; conditions: Staphylococcus epidermidis
# S. aureus (CiproR) = experiment: In vitro MIC, agar dilution; conditions: Staphylococcus aureus, S. aureus (CiproR), 25 isolates
# S. epidermidis (CiproR) = experiment: In vitro MIC, agar dilution; conditions: Staphylococcus epidermidis, S. epidermidis (CiproR), 11 isolates
smiles,measurement,setting,value
"NC1CCN(c2c(F)cc3c(=O)c(C(=O)O)cn(C4CC4)c3c2Cl)C1 (stereo not drawn) [Clinafloxacin, clinafloxacin]",MIC50,E. faecium (CiproS); read-out: MIC50,1 µg/mL
same,MIC90,E. faecium (CiproS); read-out: MIC90,2 µg/mL
same,MIC,E. faecium (CiproS); read-out: MIC Range,0.5 to 8 µg/mL
same,MIC90,B. fragilis,0.5 µg/mL
same,MIC,B. fragilis; read-out: MIC Range,0.06 to 0.5 µg/mL
same,MIC50,"B. fragilis; B. fragilis, 18 isolates, read-out: MIC50",0.25 µg/mL
same,MIC90,S. pneumoniae (PenS),0.12 µg/mL
same,MIC50,"S. pneumoniae (PenS); S. pneumoniae (PenS), 20 isolates, read-out: MIC50",0.06 µg/mL
same,MIC,"S. pneumoniae (PenS); S. pneumoniae (PenS), 20 isolates, read-out: MIC Range",0.03 to 0.12 µg/mL
same,MIC50,Enterococcus spp. (VanR); read-out: MIC50,1 µg/mL
same,MIC90,Enterococcus spp. (VanR); read-out: MIC90,2 µg/mL
same,MIC,Enterococcus spp. (VanR); read-out: MIC Range,0.12 to 8 µg/mL
same,MIC90,S. pneumoniae (PenR),0.25 µg/mL
same,MIC,S. pneumoniae (PenR); read-out: MIC Range,0.06 to 0.25 µg/mL
same,MIC50,"S. pneumoniae (PenR); S. pneumoniae (PenR), 25 isolates, read-out: MIC50",0.12 µg/mL
same,MIC90,Providencia spp.; Providencia,0.03 µg/mL
same,MIC50,"Providencia spp.; Providencia spp., 28 isolates, read-out: MIC50",0.015 µg/mL
same,MIC,"Providencia spp.; Providencia spp., 28 isolates, read-out: MIC Range",0.008 to 0.12 µg/mL
same,MIC,Shigella spp.,0.008 to 0.015 µg/mL
same,MIC90,C. difficile,0.25 µg/mL
same,MIC,C. difficile; read-out: MIC Range,0.12 to 0.25 µg/mL
same,MIC50,"C. difficile; C. difficile, 10 isolates, read-out: MIC50",0.25 µg/mL
same,MIC50,C. freundii,0.03 µg/mL
same,MIC90,C. freundii,0.12 µg/mL
same,MIC,C. freundii; read-out: MIC Range,0.015 to 0.12 µg/mL
same,MIC90,N. gonorrhoeae,0.015 µg/mL
same,MIC50,"N. gonorrhoeae; N. gonorrhoeae, 12 isolates, read-out: MIC50",0.004 µg/mL
same,MIC,"N. gonorrhoeae; N. gonorrhoeae, 12 isolates, read-out: MIC Range",0.004 to 0.015 µg/mL
same,MIC,E. faecium (CiproR),2 to 8 µg/mL
same,MIC90,P. aeruginosa (CiproS),0.5 µg/mL
same,MIC50,"P. aeruginosa (CiproS); P. aeruginosa (CiproS), 24 isolates, read-out: MIC50",0.12 µg/mL
same,MIC,"P. aeruginosa (CiproS); P. aeruginosa (CiproS), 24 isolates, read-out: MIC Range",0.015 to 0.5 µg/mL
same,MIC90,E. faecalis (VanS),0.25 µg/mL
same,MIC,E. faecalis (VanS); read-out: MIC Range,0.12 to 0.25 µg/mL
same,MIC50,"E. faecalis (VanS); E. faecalis (VanS), 17 isolates, read-out: MIC50",0.25 µg/mL
same,MIC,P. aeruginosa (CiproR); read-out: MIC Range,2 to 32 µg/mL
same,MIC50,"P. aeruginosa (CiproR); P. aeruginosa (CiproR), 20 isolates, read-out: MIC50",4 µg/mL
same,MIC90,"P. aeruginosa (CiproR); P. aeruginosa (CiproR), 20 isolates, read-out: MIC90",8 µg/mL
same,MIC50,H. influenzae; read-out: MIC50,0.008 µg/mL
same,MIC90,H. influenzae; read-out: MIC90,0.008 µg/mL
same,MIC,H. influenzae; read-out: MIC Range,0.004 to 0.008 µg/mL
same,MIC90,H. pylori,0.03 µg/mL
same,MIC50,"H. pylori; H. pylori, 17 isolates, read-out: MIC50",0.015 µg/mL
same,MIC,"H. pylori; H. pylori, 17 isolates, read-out: MIC Range",0.008 to 0.03 µg/mL
same,MIC50,Enterobacter spp.,0.03 µg/mL
same,MIC90,Enterobacter spp.,0.03 µg/mL
same,MIC,Enterobacter spp.; read-out: MIC Range,0.03 to 0.12 µg/mL
same,MIC50,S. aureus (CiproS),0.03 µg/mL
same,MIC90,S. aureus (CiproS),0.03 µg/mL
same,MIC,"S. aureus (CiproS); S. aureus (CiproS), 21 isolates, read-out: MIC Range",0.015 to 0.03 µg/mL
same,MIC50,P. mirabilis,0.03 µg/mL
same,MIC90,P. mirabilis,0.06 µg/mL
same,MIC,"P. mirabilis; P. mirabilis, 20 isolates, read-out: MIC Range",0.03 to 0.06 µg/mL
same,MIC,S. pneumoniae (CiproR),0.12 µg/mL
same,MIC90,M. avium,32 µg/mL
same,MIC50,"M. avium; M. avium, 20 isolates, read-out: MIC50",16 µg/mL
same,MIC,Salmonella spp.,0.004 to 0.25 µg/mL
same,MIC50,Salmonella spp.; read-out: MIC50,0.015 µg/mL
same,MIC90,Salmonella spp.; read-out: MIC90,0.03 µg/mL
same,MIC,E. coli,0.008 to 0.03 µg/mL
same,MIC50,E. coli; read-out: MIC50,0.015 µg/mL
same,MIC90,E. coli; read-out: MIC90,0.015 µg/mL
same,MIC,M. pneumoniae,0.015 to 0.03 µg/mL
same,MIC90,S. pyogenes,0.06 µg/mL
same,MIC,S. pyogenes; read-out: MIC Range,0.06 to 0.12 µg/mL
same,MIC50,"S. pyogenes; S. pyogenes, 21 isolates, read-out: MIC50",0.06 µg/mL
same,MIC50,S. epidermidis (CiproS),0.03 µg/mL
same,MIC90,S. epidermidis (CiproS),0.03 µg/mL
same,MIC,"S. epidermidis (CiproS); S. epidermidis (CiproS), 23 isolates, read-out: MIC Range",0.015 to 0.06 µg/mL
same,MIC50,S. aureus (CiproR); read-out: MIC50,0.5 µg/mL
same,MIC90,S. aureus (CiproR); read-out: MIC90,1 µg/mL
same,MIC,S. aureus (CiproR); read-out: MIC Range,0.25 to 2 µg/mL
same,MIC50,S. epidermidis (CiproR); read-out: MIC50,0.5 µg/mL
same,MIC90,S. epidermidis (CiproR); read-out: MIC90,1 µg/mL
same,MIC,S. epidermidis (CiproR); read-out: MIC Range,0.25 to 2 µg/mL
